Consider one compound from ChEMBL document CHEMBL1124082, “Synthesis, intramolecular hydrogen bonding, and biochemical studies of clitocine, a naturally occurring exocyclic amino nucleoside” (J Med Chem, 1988).

A short description of experiment [1]: Inhibition of growth of human B lymphoblast derived W1-L2 cells. Format: functional. As to conditions: WIL2, read-out: ID50 (the source's name).
In experiment [2] the target is T1, Adenosine kinase (Homo sapiens, UniProt P55263). Description: Inhibition of adenosine kinase from undialyzed W1-L2 lysate (0-50 uM).
Experiment [3] concerns the target T1, Adenosine kinase. The experiment is described as follows: Binding affinity towards adenosine kinase.
For experiment [4], the system named is L1210. The experiment is described as follows: In vitro inhibition of L1210 cells. It is filed as functional. As to conditions: Mus musculus, read-out: ID50 (the source's name).

T1 sequence (P55263 whole entry): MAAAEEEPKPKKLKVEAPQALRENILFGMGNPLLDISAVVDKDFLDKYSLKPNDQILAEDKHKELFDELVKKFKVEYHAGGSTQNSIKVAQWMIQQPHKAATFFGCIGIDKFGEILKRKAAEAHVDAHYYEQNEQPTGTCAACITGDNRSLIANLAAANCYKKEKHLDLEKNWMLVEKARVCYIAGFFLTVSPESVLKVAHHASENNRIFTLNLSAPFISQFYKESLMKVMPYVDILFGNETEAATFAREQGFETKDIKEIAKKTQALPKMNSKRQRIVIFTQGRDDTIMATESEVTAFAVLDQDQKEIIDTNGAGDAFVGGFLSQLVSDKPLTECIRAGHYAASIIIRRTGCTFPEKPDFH

What is called Ki is a measure of affinity in units of concentration, obtained from inhibition or displacement. Low readings indicate tighter binding, high ones weaker binding. Turning to `Nc1ncnc(N[C@@H]2O[C@H](CO)[C@@H](O)[C@H]2O)c1[N+](=O)[O-]`, the IC50 in experiment [1] and in experiment [4] was 30 nM in each case. Also, the Ki stood at 3 µM in experiment [2] and 300 nM in experiment [3].
